From US12540131B2 (Merck Sharp & Dohme LLC, priority 2019, dated 2026)

Each molecule was assayed against GST tagged truncated human mutant G2019S LRRK2 (Homo sapiens (Human), UniProt Q5S007, G2019S) (assay: LRRK2 Km ATP LanthaScreen Assay). Settings: G2019S LRRK2, 134 μM ATP (Km ATP), mean values.
Format: biochemical
In short: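 Enzyme (GST-tagged, truncated) was preincubated with compound for 15 min at RT in 50 mM Tris pH 8.5, 10 mM MgCl2, 0.01% Brij-35, 1 mM EGTA, 2 mM DTT and 0.05 mM orthovanadate. Fluorescein-LRRKtide and 134 μM ATP (Km) were then added for 90 min. EDTA and Tb-anti-pERM antibody stopped the reaction; the TR-FRET 520/495 ratio gave 4-parameter IC50s, reported as mean pIC50.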

Chain of GST tagged truncated human mutant G2019S LRRK2 (Q5S007 970-2527 G2019S): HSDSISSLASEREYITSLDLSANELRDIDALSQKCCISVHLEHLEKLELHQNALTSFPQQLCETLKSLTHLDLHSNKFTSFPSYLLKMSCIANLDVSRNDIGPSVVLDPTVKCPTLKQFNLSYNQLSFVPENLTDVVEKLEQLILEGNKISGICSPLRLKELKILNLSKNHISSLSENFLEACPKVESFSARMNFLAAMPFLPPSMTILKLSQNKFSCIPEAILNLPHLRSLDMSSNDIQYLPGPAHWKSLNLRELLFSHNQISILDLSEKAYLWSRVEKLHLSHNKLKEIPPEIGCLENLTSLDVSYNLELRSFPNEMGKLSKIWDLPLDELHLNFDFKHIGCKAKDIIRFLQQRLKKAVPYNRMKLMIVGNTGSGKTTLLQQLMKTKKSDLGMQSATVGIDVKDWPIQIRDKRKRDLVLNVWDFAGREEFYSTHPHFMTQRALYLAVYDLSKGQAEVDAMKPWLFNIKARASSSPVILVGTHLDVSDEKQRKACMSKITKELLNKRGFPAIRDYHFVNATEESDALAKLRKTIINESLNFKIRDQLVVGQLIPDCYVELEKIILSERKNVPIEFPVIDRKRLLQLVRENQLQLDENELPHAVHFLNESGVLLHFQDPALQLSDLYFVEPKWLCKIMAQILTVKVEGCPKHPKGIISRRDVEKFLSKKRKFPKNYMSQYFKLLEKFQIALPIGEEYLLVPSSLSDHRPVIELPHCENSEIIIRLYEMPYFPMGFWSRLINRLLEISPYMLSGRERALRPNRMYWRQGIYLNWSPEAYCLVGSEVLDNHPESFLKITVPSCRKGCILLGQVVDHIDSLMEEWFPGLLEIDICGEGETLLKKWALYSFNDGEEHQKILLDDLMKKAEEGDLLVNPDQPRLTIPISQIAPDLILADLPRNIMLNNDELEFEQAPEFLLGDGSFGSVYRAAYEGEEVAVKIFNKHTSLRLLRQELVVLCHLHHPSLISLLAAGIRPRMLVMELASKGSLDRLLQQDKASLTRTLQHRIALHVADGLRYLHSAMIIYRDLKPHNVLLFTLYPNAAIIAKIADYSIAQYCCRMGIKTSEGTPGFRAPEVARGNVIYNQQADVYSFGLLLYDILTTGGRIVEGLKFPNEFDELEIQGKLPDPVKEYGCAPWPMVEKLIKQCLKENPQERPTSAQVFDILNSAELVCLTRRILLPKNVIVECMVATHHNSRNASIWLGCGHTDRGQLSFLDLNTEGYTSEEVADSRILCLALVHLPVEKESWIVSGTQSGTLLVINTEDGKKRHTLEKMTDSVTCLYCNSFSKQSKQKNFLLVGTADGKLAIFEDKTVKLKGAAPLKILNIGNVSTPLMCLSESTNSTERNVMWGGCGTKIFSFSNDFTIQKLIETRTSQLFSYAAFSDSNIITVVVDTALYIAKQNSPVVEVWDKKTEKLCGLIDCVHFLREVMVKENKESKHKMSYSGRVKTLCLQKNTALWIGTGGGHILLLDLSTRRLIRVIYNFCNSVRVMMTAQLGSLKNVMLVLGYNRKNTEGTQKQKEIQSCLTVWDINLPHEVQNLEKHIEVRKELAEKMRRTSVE

With CC1(n2ncc(Nc3ncc4cc(Cl)c([C@@H]5CCNC[C@H]5F)cc4n3)c2Cl)CC1 (single isomer, unassigned) [Ex-4.91, (3S,4S) or (3R,4R) 6-chloro-N-[5-chloro-1-(1-methylcyclopropyl)-1H-pyrazol-4-yl]-7-(3-fluoropiperidin-4-yl)quinazolin-2-amine] as the molecule, how does the “LRRK2 pIC50” value read?
Its value is over 9.20.

For Cc1cc2cnc(Nc3cnn(C4CC4)c3C)nc2cc1C1CCN([C@]2(C)COC[C@@H]2O)CC1 (single isomer, unassigned) [Ex-2.39, (3S,4S) or (3R,4R) 4-(4-{2-[(1-cyclopropyl-5-methyl-1H-pyrazol-4-yl)amino]-6-methylquinazolin-7-yl}piperidin-1-yl)-4-methyloxolan-3-ol], which “LRRK2 pIC50” value is on record?
Its value is 8.09.

Cn1ncc(Nc2ncc3cc(Cl)c([C@@H]4CCN([C@H]5COC[C@H]5O)C[C@H]4F)cc3n2)c1C1CC1 (single isomer, unassigned) [Ex-4.240, (3S,4S)(3S,4S) or (3S,4S)(3R,4R) or (3R,4R)(3S,4S) or (3R,4R)(3R,4R) 4-(4-{6-chloro-2-[(5-cyclopropyl-1-methyl-1H-pyrazol-4-yl)amino]quinazolin-7-yl}-3-fluoropiperidin-1-yl)oxolan-3-ol] was tested. Which “LRRK2 pIC50” value did it give?
Its value is 7.57.

How did the “LRRK2 pIC50” value turn out when Cn1ncc(Nc2ncc3cc(Cl)c(C4CCN([C@H]5COC[C@H]5O)CC4)cc3n2)c1Cl (single isomer, unassigned) [Ex-2.66, (3S,4S) or (3R,4R) 4-(4-{6-chloro-2-[(5-chloro-1-methyl-1H-pyrazol-4-yl)amino]quinazolin-7-yl}piperidin-1-yl)oxolan-3-ol] was run?
Its value is over 9.20.

Which “LRRK2 pIC50” value does the source give for Cc1nsc(Nc2ncc3cc(Cl)c(C4CCN(C5COC5)CC4)cc3n2)c1Cl [Ex-8.5, 6-chloro-N-(4-chloro-3-methyl-1,2-thiazol-5-yl)-7-[1-(oxetan-3-yl)piperidin-4-yl]quinazolin-2-amine] here?
Its value is over 9.20.

For CO[C@H]1COC[C@H]1N1CC[C@@H](c2cc3nc(Nc4cnn(C5CC5(F)F)c4Cl)ncc3cc2C)[C@H](F)C1 (single isomer, unassigned) [Ex-4.244, (R)(3S,4S)(3S,4S) or (R)(3S,4S)(3R,4R) or (R)(3R,4R)(3S,4S) or (R)(3R,4R)(3R,4R) or (S)(3S,4S)(3S,4S) or (S)(3S,4S)(3R,4R) or (S)(3R,4R)(3S,4S) or (S)(3R,4R)(3R,4R) N-[5-chloro-1-(2,2-difluorocyclopropyl)-1H-pyrazol-4-yl]-7-[3-fluoro-1-(4-methoxyoxolan-3-yl)piperidin-4-yl]-6-methylquinazolin-2-amine], which “LRRK2 pIC50” value is on record?
The value was over 9.20.

CC1CC(c2cc3nc(Nc4cnn(C5CC5)c4Cl)ncc3cc2Cl)CC(C)N1C1COC1 (stereo not drawn) [Ex-4.118, cis or trans 6-chloro-N-(5-chloro-1-cyclopropyl-1H-pyrazol-4-yl)-7-(2,6-dimethyl-1-(oxetan-3-yl)piperidin-4-yl)quinazolin-2-amine] was tested. Which “LRRK2 pIC50” value did it give?
Its value is 8.46.

How did the “LRRK2 pIC50” value turn out when Cc1nn(C)c(Nc2ncc3cc(Cl)c(C4CCN([C@]5(C)COC[C@@H]5O)CC4)cc3n2)c1C#N (single isomer, unassigned) [Ex-2.86, (3S,4S) or (3R,4R) 5-({6-chloro-7-[1-(4-hydroxy-3-methyloxolan-3-yl)piperidin-4-yl]quinazolin-2-yl}amino)-l,3-dimethyl-1H-pyrazole-4-carbonitrile] was run?
Its value is 8.05.

C[C@]1(N2CC[C@@H](c3cc4nc(Nc5cnn(C6CC6)c5Cl)ncc4cc3Cl)[C@H](F)C2)COC[C@H]1O (single isomer, unassigned) [Ex-4.247, (3S,4S)(3S,4S) or (3S,4S)(3R,4R) or (3R,4R)(3S,4S) or (3R,4R)(3R,4R) 4-(4-{6-chloro-2-[(5-chloro-1-cyclopropyl-1H-pyrazol-4-yl)amino]quinazolin-7-yl}-3-fluoropiperidin-1-yl)-4-methyloxolan-3-ol] was tested. Which “LRRK2 pIC50” value did it give?
Its value is over 9.20.

How did the “LRRK2 pIC50” value turn out when Cc1cc(Nc2ncc3cc(C)c([C@H]4CCN([C@H]5COC[C@H]5O)C[C@@H]4F)cc3n2)n(C)n1 (single isomer, unassigned) [Ex-5.12, (3S,4S)(3S,4S) or (3S,4S)(3R,4R) or (3R,4R)(3S,4S) or (3R,4R)(3R,4R) 4-(4-{2-[(1,3-dimethyl-1H-pyrazol-5-yl)amino]-6-methylquinazolin-7-yl}-3-fluoropiperidin-1-yl)oxolan-3-ol] was run?
Its value is 6.03.

OC1(Cn2ncc(Nc3ncc4cc(Cl)c(C5CCN(C6COC6)CC5)cc4n3)c2Cl)CCC1 [Ex-8.26, 1-{[5-chloro-4-({6-chloro-7-[1-(oxetan-3-yl)piperidin-4-yl]quinazolin-2-yl}amino)-1H-pyrazol-1-yl]methyl}cyclobutan-1-ol] was tested. Which “LRRK2 pIC50” value did it give?
The value was 8.78.

For Cc1c(Nc2ncc3cc(Cl)c(C4CCN(C[C@H](O)c5cccc(F)c5F)CC4)cc3n2)cnn1C1CC1 [Ex-4.206, (1R)-2-(4-{6-chloro-2-[(1-cyclopropyl-5-methyl-1H-pyrazol-4-yl)amino]quinazolin-7-yl}piperidin-1-yl)-1-(2,3-difluorophenyl)ethan-1-ol], which “LRRK2 pIC50” value is on record?
Its value is 7.90.

With O[C@H]1COCC1N1CC[C@@H](c2cc3nc(Nc4cnn(C5CC5)c4Cl)ncc3cc2Cl)[C@H](F)C1 (single isomer, unassigned) [Ex-4.122, (3S,4S)(3S,4S) or (3S,4S)(3R,4R) or (3R,4R)(3S,4S) or (3R,4R)(3R,4R) 4-{6-chloro-2-[(5-chloro-1-cyclopropyl-1H-pyrazol-4-yl)amino]quinazolin-7-yl}-3-fluoropiperidin-1-yl]oxolan-3-ol] as the molecule, how does the “LRRK2 pIC50” value read?
The value was over 9.20.

CC1OCC1N1CCC(c2cc3nc(Nc4cnn(C5CC5)c4Cl)ncc3cc2Cl)CC1 (single isomer, unassigned) [Ex-4.46, (2R,3R) or (2S,3S) or (2S,3R) or (2R,3S) 6-chloro-N-(5-chloro-1-cyclopropyl-1H-pyrazol-4-yl)-7-[1-(2-methyloxetan-3-yl)piperidin-4-yl]quinazolin-2-amine] was tested. Which “LRRK2 pIC50” value did it give?
Its value is 9.13.

How did the “LRRK2 pIC50” value turn out when Cn1ncc(Nc2ncc3cc(Cl)c([C@H]4CCN([C@H]5COC[C@H]5O)C[C@@H]4F)cc3n2)c1Cl (single isomer, unassigned) [Ex-4.188, (3S,4S)(3S,4S) or (3S,4S)(3R,4R) or (3R,4R)(3S,4S) or (3R,4R)(3R,4R) 4-(4-{6-chloro-2-[(5-chloro-1-methyl-1H-pyrazol-4-yl)amino]quinazolin-7-yl}-3-fluoropiperidin-1-yl)oxolan-3-ol] was run?
The value was 7.83.

With Cc1c(Nc2ncc3cc(Cl)c(C4CCN(C5COC[C@@H]5O)[C@@H](C)C4)cc3n2)cnn1C1CC1 (single isomer, unassigned) [Ex-4.130, (3S,4S)(2S,4R) or (3S,4S)(2S,4S) or (3R,4R)(2S,4R) or (3R,4R)(2S,4S) (3 4-[4-{6-chloro-2-[(1-cyclopropyl-5-methyl-1H-pyrazol-4-yl)amino]quinazolin-7-yl}-2-methylpiperidin-1-yl]oxolan-3-ol] as the molecule, how does the “LRRK2 pIC50” value read?
Its value is 8.97.

With Cc1c(Nc2ncc3cc(Cl)c([C@H]4CCN(C5COC5)C[C@@H]4F)cc3n2)cnn1C1CC1(F)F (single isomer, unassigned) [Ex-4.176, (R)(3S,4S) or (S)(3S,4S) or (R)(3R,4R) or (S)(3R,4R) 6-chloro-N-[1-(2,2-difluorocyclopropyl)-5-methyl-1H-pyrazol-4-yl]-7-[(3R,4R)-3-fluoro-1-(oxetan-3-yl)piperidin-4-yl]quinazolin-2-amine] as the molecule, how does the “LRRK2 pIC50” value read?
The value was 8.73.

With O[C@@H]1COC[C@@H]1N1CC[C@H](c2cc3nc(Nc4cnn(C56CC(C5)C6)c4)ncc3cc2Cl)[C@@H](F)C1 (single isomer, unassigned) [Ex-4.155, (3S,4S)(3S,4S) or (3S,4S)(3R,4R) or (3R,4R)(3S,4S) or (3R,4R)(3R,4R) 4-[4-(2-{[1-(bicyclo[1.1.1]pentan-1-yl)-1H-pyrazol-4-yl]amino}-6-chloroquinazolin-7-yl)-3-fluoropiperidin-1-yl]oxolan-3-ol] as the molecule, how does the “LRRK2 pIC50” value read?
The value was over 9.20.

Same assay, conditions: G2019S LRRK2, 134 μM ATP (Km ATP), mean values; read-out: LRRK2 pIC50 (converted)

How did the IC50 turn out when Cc1cc2cnc(Nc3cnn(C4(C)CC4)c3C)nc2cc1C1CCN(CCC#N)CC1 [Ex-5.1, 3-(4-(6-methyl-2-((5-methyl-1-(1-methylcyclopropyl)-1H-pyrazol4-yl)amino)quinazolin-7-yl)piperidin-1-yl)propanenitrile] was run?
The IC50 was under 0.631 nM.

How did the IC50 turn out when Cc1c(Nc2ncc3cc(Cl)c(C4CCN(CC(O)CC(F)(F)F)CC4)cc3n2)cnn1C1CC1 (single isomer, unassigned) [Ex-4.192, (S) or (R) 1-(4-{6-chloro-2-[(1-cyclopropyl-5-methyl-1H-pyrazol-4-yl)amino]quinazolin-7-yl}piperidin-1-yl)-4,4,4-trifluorobutan-2-ol] was run?
Its IC50 is 1.74 nM.

For Cc1c(Nc2ncc3cc(Cl)c(C4CCN(CC(O)CN5CCOCC5)CC4)cc3n2)cnn1C1CC1 (single isomer, unassigned) [Ex-4.228, (S) or (R) 1-(4-{6-chloro-2-[(1-cyclopropyl-5-methyl-1H-pyrazol-4-yl)amino]quinazolin-7-yl}piperidin-1-yl)-3-(morpholin-4-yl)propan-2-ol], which IC50 is on record?
The IC50 was 1.55 nM.

Which IC50 does the source give for CC1(N2CCC(c3cc4nc(Nc5cnn(C67CC(C6)C7)c5)ncc4cc3Cl)CC2)COC1 [Ex-2.18, N-(1-(bicyclo[1.1.1]pentan-1-yl)-1H-pyrazol-4-yl)-6-chloro-7-(1-(3-methyloxetan-3-yl)piperidin-4-yl)quinazolin-2-amine] here?
Its IC50 is under 0.631 nM.

For Clc1cc2cnc(Nc3cnn(C4CC4)c3Cl)nc2cc1C1CCN(C2COC3(CCC3)C2)CC1 (single isomer, unassigned) [Ex-4.114, (R) or (S) 7-(1-(5-oxaspiro[3.4]octan-7-yl)piperidin-4-yl)-6-chloro-N-(5-chloro-1-cyclopropyl-1H-pyrazol-4-yl)quinazolin-2-amine], which IC50 is on record?
The IC50 was 10 nM.
